In patent US20050124607A1, “5-Substituted quinazolinone compounds useful as alpha 1A/B adrenergic receptor antagonists” (priority 2003, published 2005):

Row | melting point | SMILES
1 | 229 to 231 °C | COc1ccnc(N2CCN(c3nc(=O)c4c(OC)c(OC)c(OC)cc4[nH]3)CC2)c1 [Example 30, 5,6,7-Trimethoxy-2-[4-(4-meth-oxy-pyridin-2-yl)-pipe-razin-1-yl]-1H-quina-zolin-4-one]
2 | 212 to 215 °C | COc1cc2[nH]c(N3CCC(Cc4ccccc4)CC3)nc(=O)c2c(OC)c1OC [Example 63, 2-(4-Benzyl-piperidin-1-yl)-5,6,7-tri-methoxy-1H-quina-zolin-4-one]
3 | 245 to 249 °C | COc1cc2[nH]c(N3CCC(Cc4cccc(C(=O)O)c4)CC3)nc(=O)c2c(OC)c1OC [Example 79, 3-[1-(5,6,7-Trimethoxy-4-oxo-1,4-di-hydro-quina-zolin-2-yl)-pipe-ridin-4-ylmethyl]-benzoic acid]
4 | 115.8 to 120.1 °C | COc1cc2[nH]c(N3CCc4ccc(/N=C(\C)N(C)C)cc4C3)nc(=O)c2c(OC)c1OC [Example 103, N,N-Dimethyl-N′-[2-(5,6,7-tri-methoxy-4-oxo-1,4-di-hydro-quinazolin-2-yl)-1,2,3,4-tetra-hydro-isoquinolin-7-yl]-acetamidine]
5 | 202.4 to 204.4 °C | COCCOc1c(OC)c(OC)cc2[nH]c(N3CCc4cc(OC)c(OC)cc4C3)nc(=O)c12 [Example 105, 2-(6,7-Dimethoxy-3,4-di-hydro-1H-isoquinolin-2-yl)-6,7-di-methoxy-5-(2-meth-oxy-ethoxy)-1H-quina-zolin-4-one]
6 | 214 to 215.8 °C | COc1cc2c(cc1OC)CN(c1nc(=O)c3c(OCC4CC4)c(OC)c(OC)cc3[nH]1)CC2 [Example 108, 5-Cyclopropylmethoxy-2-(6,7-di-methoxy-3,4-di-hydro-1H-isoquinolin-2-yl)-6,7-di-methoxy-1H-quinazolin-4-one]
7 | 224 to 229 °C | COc1cc2c(cc1OC)CN(c1nc(=O)c3c(OCCO)c(OC)c(OC)cc3[nH]1)CC2 [Example 111, 2-(6,7-Dimethoxy-3,4-di-hydro-1H-isoquinolin-2-yl)-5-(2-hy-droxy-ethoxy)-6,7-di-methoxy-1H-quinazolin-4-one]
8 | 197 to 201.9 °C | COc1cc2c(cc1OC)CN(c1nc(=O)c3c(OCCOCc4ccccc4)c(OC)c(OC)cc3[nH]1)CC2 [Example 112, 5-(2-Benzyloxy-ethoxy)-2-(6,7-di-methoxy-3,4-di-hydro-1H-isoquinolin-2-yl)-6,7-di-methoxy-1H-quinazolin-4-one]
9 | 238.7 to 241.9 °C | COc1cc2c(cc1OC)CN(c1nc(=O)c3c(Oc4ccccc4)c(OC)c(OC)cc3[nH]1)CC2 [Example 113, 2-(6,7-Dimethoxy-3,4-di-hydro-1H-isoquinolin-2-yl)-6,7-di-methoxy-5-phe-noxy-1H-quinazolin-4-one]
10 | 192.2 to 193.5 °C | CCCC(=N)Nc1cccc2c1CCN(c1nc(=O)c3c(OC)c(OC)c(OC)cc3[nH]1)C2 [Example 115, N-[2-(5,6,7-Trimethoxy-4-oxo-1,4-di-hydro-quina-zolin-2-yl)-1,2,3,4-tetra-hydro-isoquinolin-5-yl]-butyramidine]

The next lines start with the molecule.

Row | SMILES | melting point
11 | COc1cc2[nH]c(N3CCN(c4cc(C)ccn4)CC3)nc(=O)c2c(OC)c1OC [Example 25, 5,6,7-Trimethoxy-2-[4-(4-meth-yl-pyridin-2-yl)-pipe-razin-1-yl]-1H-quina-zolin-4-one] | 235.3 to 235.5 °C
12 | COc1cc2[nH]c(N3CCN(c4cccc[n+]4[O-])CC3)nc(=O)c2c(OC)c1OC [Example 26, 5,6,7-Trimethoxy-2-[4-(1-oxy-py-ridin-2-yl)-pipe-razin-1-yl]-1H-quina-zolin-4-one] | 142.8 to 147.2 °C
13 | COc1cc2[nH]c(N3CCN(c4nccn4C)CC3)nc(=O)c2c(OC)c1OC [Example 28, 5,6,7-Trimethoxy-2-[4-(1-meth-yl-1H-imidazol-2-yl)-pipe-razin-1-yl]-1H-quina-zolin-4-one] | 227 to 229 °C
14 | COc1cc2[nH]c(N3CCN(c4cccc(C)n4)CC3)nc(=O)c2c(C)c1OC [Example 42, 6,7-Dimethoxy-5-meth-yl-2-[4-(6-methyl-py-ridin-2-yl)-piperazin-1-yl]-1H-quina-zolin-4-one] | 284.5 to 285.5 °C
15 | COC[C@@H]1CCCN1CCC1CCN(c2nc(=O)c3c(C)c(OC)c(OC)cc3[nH]2)CC1 [Example 51, 6,7-Dimethoxy-2-{4-[2-((S)-2-meth-oxymethyl-pyr-rolidin-1-yl)-ethyl]-pipe-ridin-1-yl}-5-meth-yl-1H-quinazolin-4-one] | 83.1 to 110.9 °C
16 | COC[C@H]1CCCN1CCC1CCN(c2nc(=O)c3c(C)c(OC)c(OC)cc3[nH]2)CC1 [Example 57, 6,7-Dimethoxy-2-{4-[2-((R)-2-meth-oxymethyl-pyr-rolidin-1-yl)-ethyl]-pipe-ridin-1-yl}-5-meth-yl-1H-quinazolin-4-one] | 219 to 221.9 °C
17 | COc1cc2[nH]c(N3CCC(OCc4ccccc4S(=O)(=O)N(C)C)CC3)nc(=O)c2c(C)c1OC [Example 61, 2-[1-(6,7-Dimethoxy-5-meth-yl-4-oxo-1,4-di-hydro-quinazolin-2-yl)-pipe-ridin-4-yl-oxymethyl]-N,N-dimethyl-benzene-sulfonamide] | 217.9 to 219.8 °C
18 | COC[C@@H]1CCCN1CCC1CCN(c2nc(=O)c3c(OC)c(OC)c(OC)cc3[nH]2)CC1 [Example 69, 5,6,7-Trimeth-oxy-2-{4-[2-((S)-2-meth-oxymethyl-pyr-rolidin-1-yl)-ethyl]-pipe-ridin-1-yl}-1H-quina-zolin-4-one] | 78.8 to 91.6 °C
19 | COC[C@H]1CCCN1CCC1CCN(c2nc(=O)c3c(OC)c(OC)c(OC)cc3[nH]2)CC1 [Example 70, 5,6,7-Trimeth-oxy-2-{4-[2-((R)-2-meth-oxymethyl-pyr-rolidin-1-yl)-ethyl]-pipe-ridin-1-yl}-1H-quina-zolin-4-one] | 65 to 79.1 °C
20 | COc1cc2[nH]c(N3CCC(OCc4ccccc4S(=O)(=O)N(C)C)CC3)nc(=O)c2c(OC)c1OC [Example 77, N,N-Dimethyl-2-[1-(5,6,7-tri-methoxy-4-oxo-1,4-di-hydro-quinazolin-2-yl)-pipe-ridin-4-yloxy-methyl]-benzene-sulfonamide] | 186 to 188.2 °C
21 | COc1cc2[nH]c(N3CCC(OCc4cccc(N(S(C)(=O)=O)S(C)(=O)=O)c4)CC3)nc(=O)c2c(OC)c1OC [Example 80, N-Methane-sulfonyl-N-{3-[1-(5,6,7-tri-methoxy-4-oxo-1,4-di-hydro-quina-zolin-2-yl)-pipe-ridin-4-yloxy-methyl]-phenyl}-methane-sulfonamide] | 100.7 to 160.4 °C
22 | COc1cc2[nH]c(N3CCC(OCc4cccc(/N=C(\C)N(C)C)c4)CC3)nc(=O)c2c(OC)c1OC [Example 81, N,N-Dimethyl-N′-{3-[1-(5,6,7-tri-methoxy-4-oxo-1,4-di-hydro-quinazolin-2-yl)-pipe-ridin-4-yloxy-methyl]-phenyl}-acetamidine] | 56 to 64.9 °C
23 | COc1cc2[nH]c(N3CCc4c(cccc4/N=C(\C)N(C)C)C3)nc(=O)c2c(C)c1OC [Example 98, N′-[2-(6,7-Dimethoxy-5-meth-yl-4-oxo-1,4-di-hydro-quinazolin-2-yl)-1,2,3,4-tetra-hydro-iso-quinolin-5-yl]-N,N-di-methyl-acetamidine] | 270.9 to 273.5 °C
